Like-named read-outs stand apart in the source and are kept apart here.
Experiments:
[1] = system: ECL1004 Enterobacter cloacae NMC-A; assay: Checkerboard assay, biapenem potentiation; settings: Biapenem MIC 8-fold; ECL1004 NMC-A class A
[2] = system: EC1007 Escherichia coli KPC-3; assay: Checkerboard assay, biapenem potentiation; settings: Biapenem MIC 8-fold; EC1007 KPC-3 class A
[3] = system: SM1000 Serratia marcescens SME-2; assay: Checkerboard assay, biapenem potentiation; settings: Biapenem MIC 8-fold; SM1000 SME-2 class A
[4] = target: various β-lactamases (bacterial lysates) (Escherichia coli, UniProt A0A5R8T042); assay: biochemical; format: biochemical; settings: read-out: AZT IC50 KP1009 CTX-M-15
Chain of various β-lactamases (bacterial lysates) (Escherichia coli, UniProt A0A5R8T042) (A0A5R8T042 29-291): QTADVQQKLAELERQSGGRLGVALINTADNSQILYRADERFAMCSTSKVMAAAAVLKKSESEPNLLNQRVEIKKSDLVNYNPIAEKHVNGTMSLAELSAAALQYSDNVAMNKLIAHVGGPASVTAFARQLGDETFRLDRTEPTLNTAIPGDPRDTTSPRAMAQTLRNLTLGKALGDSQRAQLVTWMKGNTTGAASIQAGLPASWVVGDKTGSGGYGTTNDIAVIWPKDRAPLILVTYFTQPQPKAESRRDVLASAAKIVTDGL

[5] = target: various β-lactamases (bacterial lysates) (Escherichia coli, UniProt A0A649V088); assay: biochemical; format: biochemical; settings: read-out: AZT IC50 KP1005 CTX-M-14
Chain of various β-lactamases (bacterial lysates) (Escherichia coli, UniProt A0A649V088) (A0A649V088 29-291): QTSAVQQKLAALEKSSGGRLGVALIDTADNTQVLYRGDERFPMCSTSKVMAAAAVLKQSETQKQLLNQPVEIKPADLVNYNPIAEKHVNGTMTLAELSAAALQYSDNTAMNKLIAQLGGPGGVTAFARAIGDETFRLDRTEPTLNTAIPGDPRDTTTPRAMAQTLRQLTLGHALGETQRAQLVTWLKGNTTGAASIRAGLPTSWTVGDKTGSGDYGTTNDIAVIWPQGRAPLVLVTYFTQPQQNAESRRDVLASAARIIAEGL

[6] = target: various β-lactamases (bacterial lysates) (Klebsiella pneumoniae, UniProt Q9F663); assay: biochemical; format: biochemical; settings: aztreonam cleavage
Chain of various β-lactamases (bacterial lysates) (Klebsiella pneumoniae, UniProt Q9F663) (Q9F663 whole entry, looked up): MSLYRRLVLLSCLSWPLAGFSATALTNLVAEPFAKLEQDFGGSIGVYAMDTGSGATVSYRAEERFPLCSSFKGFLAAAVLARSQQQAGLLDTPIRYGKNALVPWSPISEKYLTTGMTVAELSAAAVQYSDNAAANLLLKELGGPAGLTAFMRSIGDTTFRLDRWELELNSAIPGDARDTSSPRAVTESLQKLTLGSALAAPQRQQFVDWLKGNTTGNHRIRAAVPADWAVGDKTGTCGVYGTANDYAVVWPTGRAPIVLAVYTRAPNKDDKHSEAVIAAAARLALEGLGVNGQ

[7] = target: various β-lactamases (bacterial lysates) (Klebsiella pneumoniae, UniProt Q9F663, H272Y); assay: biochemical; format: biochemical
Chain of various β-lactamases (bacterial lysates) (Klebsiella pneumoniae, UniProt Q9F663, H272Y) (Q9F663 whole entry H272Y, looked up): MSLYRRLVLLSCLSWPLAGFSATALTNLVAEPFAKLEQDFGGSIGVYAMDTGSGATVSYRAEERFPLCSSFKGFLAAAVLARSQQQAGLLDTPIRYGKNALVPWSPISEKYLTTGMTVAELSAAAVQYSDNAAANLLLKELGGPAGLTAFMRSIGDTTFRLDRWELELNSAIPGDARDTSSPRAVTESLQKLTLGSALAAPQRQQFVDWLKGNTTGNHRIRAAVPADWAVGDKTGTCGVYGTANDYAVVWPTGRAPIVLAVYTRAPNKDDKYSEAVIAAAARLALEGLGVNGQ

[8] = target: various β-lactamases (bacterial lysates) (Pseudomonas aeruginosa, UniProt P14489); assay: biochemical; format: biochemical; settings: AZT IC50 KP1007 OXA-10
Chain of various β-lactamases (bacterial lysates) (Pseudomonas aeruginosa, UniProt P14489) (P14489 20-266): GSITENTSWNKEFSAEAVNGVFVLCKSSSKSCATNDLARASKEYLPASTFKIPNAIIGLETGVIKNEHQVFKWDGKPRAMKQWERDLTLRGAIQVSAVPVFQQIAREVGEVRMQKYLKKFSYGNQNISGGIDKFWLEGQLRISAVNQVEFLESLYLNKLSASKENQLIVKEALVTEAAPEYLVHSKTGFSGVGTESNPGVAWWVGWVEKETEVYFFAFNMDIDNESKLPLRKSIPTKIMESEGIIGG

[9] = target: various β-lactamases (bacterial lysates) (Salmonella typhimurium, UniProt P0A1V8); assay: biochemical; format: biochemical; settings: AZT IC50 KPX1001 OXA-2
Chain of various β-lactamases (bacterial lysates) (Salmonella typhimurium, UniProt P0A1V8) (P0A1V8 22-275): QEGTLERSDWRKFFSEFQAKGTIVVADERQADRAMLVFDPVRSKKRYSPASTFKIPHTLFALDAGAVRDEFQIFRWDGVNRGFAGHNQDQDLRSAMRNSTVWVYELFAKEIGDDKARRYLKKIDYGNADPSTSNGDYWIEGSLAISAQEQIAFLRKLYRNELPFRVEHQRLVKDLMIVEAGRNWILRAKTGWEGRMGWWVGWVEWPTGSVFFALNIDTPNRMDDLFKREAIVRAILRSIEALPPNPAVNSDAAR

[10] = target: various β-lactamases (bacterial lysates) (Escherichia coli, UniProt Q53TY8); assay: Inhibition of nitrocefin cleavage by bacterial lysates, Table 11; format: biochemical; settings: lysate EC1010 pAmpC (CMY-6), read-out: NCF IC50 EC1010 pAmpC (CMY-6)
Chain of various β-lactamases (bacterial lysates) (Escherichia coli, UniProt Q53TY8) (Q53TY8 entry or part of it): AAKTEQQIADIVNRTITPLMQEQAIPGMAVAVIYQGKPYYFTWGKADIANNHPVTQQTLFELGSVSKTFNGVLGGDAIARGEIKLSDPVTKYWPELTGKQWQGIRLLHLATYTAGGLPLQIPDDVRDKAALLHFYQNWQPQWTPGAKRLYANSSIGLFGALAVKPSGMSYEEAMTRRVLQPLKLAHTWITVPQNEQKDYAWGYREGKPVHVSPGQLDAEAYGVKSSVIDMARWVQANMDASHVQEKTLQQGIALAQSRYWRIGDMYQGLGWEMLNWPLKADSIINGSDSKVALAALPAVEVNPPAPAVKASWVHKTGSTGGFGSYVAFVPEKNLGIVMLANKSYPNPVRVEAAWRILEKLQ

[11] = system: strains expressing class A ESBLs; format: cell-based
Procedure: Selected β-lactamase inhibitors were also tested for their ability to potentiate the monobactam tigemonam.

[12] = lysate KP1004 KPC-2, read-out: AZT IC50 KP1004 KPC-2 (converted)
[13] = lysate KP1008 KPC-2, read-out: AZT IC50 KP1008 KPC-2

Compound	MPC8 [1]	MPC8 [2]	MPC8 [3]	IC50 [4] [µM]	IC50 [5] [µM]	IC50 [6, 12] [µM]	IC50 [6, 13] [µM]	IC50 [7] [µM]	IC50 [8] [µM]	IC50 [9] [µM]	IC50 [10] [µM]	MPC4 CTX-M-14 KP1005 [11]	MPC4 CTX-M-15 KP1009 [11]	MPC4 SHV-5 ec308 [11]	MPC4 SHV-12 KP1010 [11]	MPC4 SHV-18 KP1012 [11]	MPC4 TEM-10 EC1009 [11]	MPC4 TEM-10 ec302 [11]	MPC4 TEM-26 ec304 [11]
O=C(O)CC1CC[C@H](NC(=O)Cc2ccccc2)B(O)O1 (stereo partly drawn) [Compound 2, 2-((3R)-2-hydroxy-3-(2-phenylacetamido)-1,2-oxaborinan-6-yl)acetic acid]	Y (MPC8 of 0.16 μg/mL to 1 μg/mL)	X (MPC8 of less than 0.16 μg/mL)	Y (MPC8 of 0.16 μg/mL to 1 μg/mL)																
CC(C)(O/N=C(\C(=O)N[C@H]1CC[C@@H](CC(=O)O)OB1O)c1csc(N)n1)C(=O)O [Compound 36, 2-((Z)-1-(2-aminothiazol-4-yl)-2-((3R,6S)-6-(carboxymethyl)-2-hydroxy-1,2-oxaborinan-3-ylamino)-2-oxoethylideneaminooxy)-2-methylpropanoic acid]				< 1.17	< 1.17	1.17 to 4.67	1.17 to 4.67	< 1.17	> 4.67	> 4.67	> 4.67								
O=C(O)C[C@@H]1CC[C@H](NC(=O)c2ccccc2)B(O)O1 [Compound 37, 2-((3R,6S)-3-benzamido-2-hydroxy-1,2-oxaborinan-6-yl)acetic acid]				< 1.8	< 1.8	< 1.8	< 1.8	< 1.8	1.8 to 7.22	1.8 to 7.22		Z (key: X: MPC@4 of less than 2 μg/mL; Y: MPC@4 of 2 μg/mL to 10 μg/mL; Z: MPC@4 of greater than 10 μg/mL)	Z (key: X: MPC@4 of less than 2 μg/mL; Y: MPC@4 of 2 μg/mL to 10 μg/mL; Z: MPC@4 of greater than 10 μg/mL)	Z (key: X: MPC@4 of less than 2 μg/mL; Y: MPC@4 of 2 μg/mL to 10 μg/mL; Z: MPC@4 of greater than 10 μg/mL)	Z (key: X: MPC@4 of less than 2 μg/mL; Y: MPC@4 of 2 μg/mL to 10 μg/mL; Z: MPC@4 of greater than 10 μg/mL)	Z (key: X: MPC@4 of less than 2 μg/mL; Y: MPC@4 of 2 μg/mL to 10 μg/mL; Z: MPC@4 of greater than 10 μg/mL)	Z (key: X: MPC@4 of less than 2 μg/mL; Y: MPC@4 of 2 μg/mL to 10 μg/mL; Z: MPC@4 of greater than 10 μg/mL)	Z (key: X: MPC@4 of less than 2 μg/mL; Y: MPC@4 of 2 μg/mL to 10 μg/mL; Z: MPC@4 of greater than 10 μg/mL)	Z (key: X: MPC@4 of less than 2 μg/mL; Y: MPC@4 of 2 μg/mL to 10 μg/mL; Z: MPC@4 of greater than 10 μg/mL)
Nc1nc(CC(=O)N[C@H]2CC[C@@H](CC(=O)O)OB2O)cs1 [Compound 39, 2-((3R,6S)-3-(2-(2-aminothiazol-4-yl)acetamido)-2-hydroxy-1,2-oxaborinan-6-yl)acetic acid]				1.6 to 6.39	1.6 to 6.39	< 1.6	1.6 to 6.39	< 1.6	> 6.39	1.6 to 6.39	> 6.39								
CO/N=C(\C(=O)N[C@H]1CC[C@@H](CC(=O)O)OB1O)c1csc(N)n1 [Compound 40, 2-((3R,6S)-3-((Z)-2-(2-aminothiazol-4-yl)-2-(methoxyimino)acetamido)-2-hydroxy-1,2-oxaborinan-6-yl)acetic acid]				< 1.4	< 1.4	1.4 to 5.62	> 5.62	1.4 to 5.62	1.4 to 5.62	< 1.4	1.4 to 5.62								
NCCSCC(=O)N[C@H]1CC[C@@H](CC(=O)O)OB1O [Compound 48, 2-((3R,6S)-3-(2-(2-aminoethylthio)acetamido)-2-hydroxy-1,2-oxaborinan-6-yl)acetic acid]				> 6.89	1.72 to 6.89	< 1.72	1.72 to 6.89	< 1.72	> 6.89	1.72 to 6.89		Z (key: X: MPC@4 of less than 2 μg/mL; Y: MPC@4 of 2 μg/mL to 10 μg/mL; Z: MPC@4 of greater than 10 μg/mL)	Z (key: X: MPC@4 of less than 2 μg/mL; Y: MPC@4 of 2 μg/mL to 10 μg/mL; Z: MPC@4 of greater than 10 μg/mL)	Z (key: X: MPC@4 of less than 2 μg/mL; Y: MPC@4 of 2 μg/mL to 10 μg/mL; Z: MPC@4 of greater than 10 μg/mL)	Z (key: X: MPC@4 of less than 2 μg/mL; Y: MPC@4 of 2 μg/mL to 10 μg/mL; Z: MPC@4 of greater than 10 μg/mL)	Z (key: X: MPC@4 of less than 2 μg/mL; Y: MPC@4 of 2 μg/mL to 10 μg/mL; Z: MPC@4 of greater than 10 μg/mL)	Z (key: X: MPC@4 of less than 2 μg/mL; Y: MPC@4 of 2 μg/mL to 10 μg/mL; Z: MPC@4 of greater than 10 μg/mL)	Z (key: X: MPC@4 of less than 2 μg/mL; Y: MPC@4 of 2 μg/mL to 10 μg/mL; Z: MPC@4 of greater than 10 μg/mL)	Z (key: X: MPC@4 of less than 2 μg/mL; Y: MPC@4 of 2 μg/mL to 10 μg/mL; Z: MPC@4 of greater than 10 μg/mL)
NC1(CC(=O)N[C@H]2CC[C@@H](CC(=O)O)OB2O)CCCCC1 [Compound 51, 2-((3R,6S)-3-(2-(1-aminocyclohexyl)acetamido)-2-hydroxy-1,2-oxaborinan-6-yl)acetic acid]				> 6.41	> 6.41	< 1.6	< 1.6	< 1.6	> 6.41	1.6 to 6.41	1.6 to 6.41								
O=C(O)C[C@@H]1CC[C@H](NC(=O)Cn2ccnc2-c2ccccc2)B(O)O1 [Compound 54, 2-((3R,6S)-2-hydroxy-3-(2-(2-phenyl-1H-imidazol-1-yl)acetamido)-1,2-oxaborinan-6-yl)acetic acid]				> 5.6	< 1.4	< 1.4	< 1.4	< 1.4	> 5.6	1.4 to 5.6	1.4 to 5.6								
Nc1nc(/C(=N/OCc2cc(=O)c(O)cn2O)C(=O)N[C@H]2CC[C@@H](CC(=O)O)OB2O)cs1 [Compound 62, 2-((3R)-3-((Z)-2-(2-aminothiazol-4-yl)-2-((1,5-dihydroxy-4-oxo-1,4-dihydropyridin-2-yl)methoxyimino)acetamido)-2-hydroxy-1,2-oxaborinan-6-yl)acetic acid]				1.04 to 4.16	1.04 to 4.16	1.04 to 4.16	< 1.04	< 1.04	> 4.16	> 4.16	> 4.16								
O=C(O)CC1CCC[C@H](NC(=O)Cc2cccs2)B(O)O1 (stereo partly drawn) [Compound 63, 2-((3R)-2-hydroxy-3-(2-(thiophen-2-yl)acetamido)-1,2-oxaborepan-7-yl)acetic acid]				1.61 to 6.43	1.61 to 6.43	1.61 to 6.43	1.61 to 6.43	1.61 to 6.43	> 6.43	1.61 to 6.43		Z (key: X: MPC@4 of less than 2 μg/mL; Y: MPC@4 of 2 μg/mL to 10 μg/mL; Z: MPC@4 of greater than 10 μg/mL)	Y (key: X: MPC@4 of less than 2 μg/mL; Y: MPC@4 of 2 μg/mL to 10 μg/mL; Z: MPC@4 of greater than 10 μg/mL)	Z (key: X: MPC@4 of less than 2 μg/mL; Y: MPC@4 of 2 μg/mL to 10 μg/mL; Z: MPC@4 of greater than 10 μg/mL)	Y (key: X: MPC@4 of less than 2 μg/mL; Y: MPC@4 of 2 μg/mL to 10 μg/mL; Z: MPC@4 of greater than 10 μg/mL)	Y (key: X: MPC@4 of less than 2 μg/mL; Y: MPC@4 of 2 μg/mL to 10 μg/mL; Z: MPC@4 of greater than 10 μg/mL)	Z (key: X: MPC@4 of less than 2 μg/mL; Y: MPC@4 of 2 μg/mL to 10 μg/mL; Z: MPC@4 of greater than 10 μg/mL)	Z (key: X: MPC@4 of less than 2 μg/mL; Y: MPC@4 of 2 μg/mL to 10 μg/mL; Z: MPC@4 of greater than 10 μg/mL)	Z (key: X: MPC@4 of less than 2 μg/mL; Y: MPC@4 of 2 μg/mL to 10 μg/mL; Z: MPC@4 of greater than 10 μg/mL)

From US11090319B2, “Therapeutic uses of pharmaceutical compositions comprising cyclic boronic acid ester derivatives” (Melinta Subsidiary Corp., priority 2010, dated 2021)
